In US10316038B2, “Pyrrolopyrimidine ITK inhibitors for treating inflammation and cancer” (ACLARIS THERAPEUTICS, INC., priority 2017, dated 2019):
Read-outs that look alike come from different tables or passages of the source.

Columns and labels:
ITK = target: T1, ITK (Homo sapiens, UniProt Q08881); assay: ITK inhibitor binding potency (LanthaScreen competitive binding assay); conditions: TR-FRET competitive binding, 10 nM ITK, 50 nM kinase tracer-236; pre-incubation condition not given; read-out: ITK Inhibition IC50
T1 sequence (Q08881 1-620): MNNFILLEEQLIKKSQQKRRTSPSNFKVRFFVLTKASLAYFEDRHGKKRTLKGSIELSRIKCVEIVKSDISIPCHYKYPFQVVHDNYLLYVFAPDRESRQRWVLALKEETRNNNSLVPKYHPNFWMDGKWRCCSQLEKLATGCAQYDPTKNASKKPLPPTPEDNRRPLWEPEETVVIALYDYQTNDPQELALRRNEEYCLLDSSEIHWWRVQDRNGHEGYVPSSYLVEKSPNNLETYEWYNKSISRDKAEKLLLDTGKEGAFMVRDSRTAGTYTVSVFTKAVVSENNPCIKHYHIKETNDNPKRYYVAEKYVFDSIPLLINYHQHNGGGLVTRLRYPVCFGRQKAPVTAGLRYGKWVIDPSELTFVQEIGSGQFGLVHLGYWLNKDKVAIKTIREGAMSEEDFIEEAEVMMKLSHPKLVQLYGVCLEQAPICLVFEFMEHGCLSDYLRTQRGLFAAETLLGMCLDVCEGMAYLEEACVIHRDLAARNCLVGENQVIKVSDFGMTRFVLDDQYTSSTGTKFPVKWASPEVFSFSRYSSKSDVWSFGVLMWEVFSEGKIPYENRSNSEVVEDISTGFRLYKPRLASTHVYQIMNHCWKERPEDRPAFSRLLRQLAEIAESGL
How it was run: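 TR-FRET tracer displacement using 10 nM ITK, 2 nM Eu-anti-GST antibody, 50 nM kinase tracer-236 in 20 mM HEPES pH 7.5, 10 mM MgCl2, 0.01% BSA, 0.0005% Tween-20, 2% DMSO. Run with or without 2 h compound–ITK pre-incubation before tracer; 11-point dose-response 20 uM–0.34 nM, IC50 from 4-parameter fit of emission ratio.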

[1] = system: ITK phosphorylation of its substrate, PLCγ1, at Y783; assay: ITK target modulation assay (phospho-Y783 PLCγ1 immunoblot in Jurkat T cells); assay type: cell-based; conditions: 2 hours compound, CD3/CD28 Dynabeads stimulation 100 sec, anti-phospho-Y783 PLCγ1 immunoblot, read-out: PLC-γ Inhibition IC50
How it was run: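 Human Jurkat T cells (4 million per tube) were pretreated with compound for 2 hours at 37° C. They were then stimulated with CD3/CD28 Dynabeads (1 bead per cell) for 100 sec and lysed. Lysates were resolved by SDS-PAGE and immunoblotted for phospho-PLCγ1, with HRP secondary antibody and ECL detection.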

IC50 (ITK) [µM]	IC50 ([1]; Homo sapiens, Jurkat, 2 h) [µM]	IC50 ([1]; Human Jurkat T cells) [µM]	SMILES
≤ 0.1	≤ 1	–	COc1cc(-c2c[nH]c3ncc(-c4cc(NC(=O)/C=C/CN(C)C)cc(C(F)(F)F)c4)cc23)ccn1 [Example 56, (E)-4-(dimethyl-amino)-N-(3-(3-(2-methoxy-pyridin-4-yl)-1H-pyrrolo[2,3-b]-pyridin-5-yl)-5-(trifluoromethyl)-phenyl)but-2-enamide]
≤ 0.1	–	1 to 5	CN(C)C/C=C/C(=O)Nc1cncc(-c2cnc3[nH]cc(-c4ccnc(C#N)c4)c3c2)c1 [Example 61, (E)-N-(5-(3-(2-cyanopyridin-4-yl)-1H-pyrrolo-[2,3-b]pyridin-5-yl)pyridin-3-yl)-4-(dimethyl-amino)but-2-enamide]
≤ 1	> 5	–	C=CC(=O)Nc1cncc(-c2cnc3[nH]cc(-c4cccc(C(F)(F)F)c4)c3c2)c1 [Example 62, N-(5-(3-(3-(trifluoromethyl)-phenyl)-1H-pyrrolo[2,3-b]-pyridin-5-yl)-pyridin-3-yl)-acrylamide]
≤ 0.1	≤ 1	–	C=CC(=O)N(C)c1cc(OC)cc(-c2cnc3[nH]cc(-c4cccc(C#N)c4)c3c2)c1 [Example 65, N-(3-(3-(3-cyano-phenyl)-1H-pyrrolo[2,3-b]-pyridin-5-yl)-5-methoxyphenyl)-N-methylacryl-amide]
≤ 0.1	≤ 1	–	C=CC(=O)N(C)c1cncc(-c2cnc3[nH]cc(-c4cccc(C#N)c4)c3c2)c1 [Example 66, N-(5-(3-(3-cyano-phenyl)-1H-pyrrolo[2,3-b]-pyridin-5-yl)-pyridin-3-yl)-N-methylacrylamide]
> 1	> 5	–	CN(C)C/C=C/C(=O)Nc1cc(-c2cnc3c(c2)c(-c2cccc(C#N)c2)cn3C)cc(C(F)(F)F)c1 [Example 70]
≤ 0.1	≤ 1	–	COc1cc(-c2c[nH]c3ncc(-c4cncc(NC(=O)/C=C/CN(C)C)c4)cc23)ccn1 [Example 71, (E)-4-(dimethyl-amino)-N-(5-(3-(2-methoxypyridin-4-yl)-1H-pyrrolo[2,3-b]pyridin-5-yl)-pyridin-3-yl)but-2-enamide]
≤ 0.1	1 to 5	–	CN(C)C/C=C/C(=O)N(C)c1cncc(-c2cnc3[nH]cc(-c4cccc(C#N)c4)c3c2)c1 [Example 72, (E)-N-(5-(3-(3-cyanophenyl)-1H-pyrrolo[2,3-b]-pyridin-5-yl)-pyridin-3-yl)-4-(dimethylamino)-N-methylbut-2-enamide]

The remaining lines, values behind:

SMILES	IC50 (ITK) [µM]	IC50 ([1]; Homo sapiens, Jurkat, 2 h) [µM]	IC50 ([1]; Human Jurkat T cells) [µM]
CN(C)C/C=C/C(=O)Nc1cc(-c2cnc3[nH]cc(-c4ccnc5c4ccn5C)c3c2)cc(C(F)(F)F)c1 [Example 55, (E)-4-(dimethyl-amino)-N-(3-(1′-methyl-1H,1′H-[3,4′-bipyrrolo[2,3-b]pyridin]-5-yl)-5-(trifluoro-methyl)phenyl)-but-2-enamide]	≤ 0.1	≤ 1	–
CN(C)C/C=C/C(=O)Nc1cncc(-c2cnc3[nH]cc(-c4ccncn4)c3c2)c1 [Example 57, (E)-4-(dimethyl-amino)-N-(5-(3-(pyrimidin-4-yl)-1H-pyrrolo[2,3-b]pyridin-5-yl)-pyridin-3-yl)but-2-enamide]	≤ 0.1	> 5	–
C=CC(=O)Nc1cc(-c2cnc3[nH]cc(-c4cccc(Cl)c4)c3c2)cc(C(F)(F)F)c1 [Example 58, N-(3-(3-(3-chloro-phenyl)-1H-pyrrolo[2,3-b]-pyridin-5-yl)-5-(trifluoro-methyl)phenyl)-acrylamide]	≤ 1	> 5	–
C=CC(=O)Nc1cc(-c2cnc3[nH]cc(-c4cccc(C)c4)c3c2)cc(C(F)(F)F)c1 [Example 59, N-(3-(3-(m-tolyl)-1H-pyrrolo[2,3-b]-pyridin-5-yl)-5-(trifluoromethyl)-phenyl)acrylamide]	≤ 1	> 5	–
C=CC(=O)Nc1cc(-c2cnc3[nH]cc(-c4cccc(F)c4)c3c2)cc(C(F)(F)F)c1 [Example 63, N-(3-(3-(3-fluoro-phenyl)-1H-pyrrolo[2,3-b]-pyridin-5-yl)-5-(trifluoro-methyl)phenyl)-acrylamide]	≤ 1	1 to 5	–
COc1cc(-c2cnc3[nH]cc(-c4cccc(C#N)c4)c3c2)cc(N(C)C(=O)/C=C/CN(C)C)c1 [Example 64]	≤ 0.1	≤ 1	–
C=CC(=O)Nc1cc(-c2cnc3[nH]cc(-c4cncnc4)c3c2)cc(C(F)(F)F)c1 [Example 67, N-(3-(3-(pyrimidin-5-yl)-1H-pyrrolo-[2,3-b]pyridin-5-yl)-5-(trifluoro-methyl)phenyl)-acrylamide]	≤ 0.1	≤ 1	–
C=CC(=O)Nc1cc(-c2cnc3[nH]cc(-c4cnc(OC)nc4)c3c2)cc(C(F)(F)F)c1 [Example 68, N-(3-(3-(2-methoxy-pyrimidin-5-yl)-1H-pyrrolo[2,3-b]pyridin-5-yl)-5-(trifluoromethyl)-phenyl)acrylamide]	≤ 0.1	≤ 1	–
C=CC(=O)Nc1cc(F)cc(-c2cnc3[nH]cc(-c4cccc(C#N)c4)c3c2)c1 [Example 69, N-(3-(3-(3-cyano-phenyl)-1H-pyrrolo[2,3-b]-pyridin-5-yl)-5-fluorophenyl)-acrylamide]	≤ 0.1	> 5	–
